Experimental data taken from PubChem BioAssay AID1919013 (Molecular Pharmacology Branch, DTP, NCI, 2023).
Values belong to the molecule of their own block, whether it stands above or below them.

Tested on: LG0703-F498-PDC complex spheroid growth
Assay: Anticancer human tumor LG0703-F498-PDC patient-derived lung adenocarcinoma cell line growth inhibition [AhR]
Details: for IC50: curve of first compound; for viability, T/C: stronger effect = lower value
From the text: Multicellular complex tumor spheroid response to aryl hydrocarbon receptor antagonists in combination with a variety of drugs and investigational agents in selected tumor cell lines
The current study was undertaken to assess response to aryl hydrocarbon receptor antagonists in combination with standard-of-care drugs and investigational agents in solid tumor complex spheroid models. Complex spheroids include a stromal component modeled by human endothelial cells (HUVEC) and fibroblasts modeled by human mesenchymal stem cells (MSCs). The concentration ranges selected for each drug and investigational agent were based upon clinically achievable concentrations if the clinical Cmax of the agent was known.
Compounds. The drugs and investigational agents: BAY 2416964 (NSC825713), GNF351 (NSC835774), CH-223191 (NSC835775), CPI-455 (NSC825282), aza-TdCyd (NSC777586), decitabine (NSC127716), belinostat (NSC758774), entinostat (NSC756642), pevonedistat (NSC761192), tazemetostat (NSC777109), talazoparib (NSC765396), olaparib (NSC753686), selinexor (NSC780203), nedisertib (M3814, NSC802822), bortezomib (NSC756655), venetoclax (NSC766270), doxorubicin (NSC123127), elimusertib (BAY189344, NSC800525), ceralasertib (AZD6738, NSC777638), TAK-243 (NSC785004), alisertib (NSC759677), etoposide (NSC141540), topotecan (NSC609699), eribulin (NSC707389), gemcitabine (NSC613327), carboplatin (NSC241240), cisplatin (NSC119875), and SN-38 (NSC673596) were obtained from the National Cancer Institute (NCI) Developmental Therapeutics Program Chemical Repository (32). The FDA-approved anticancer drug set is available from the Developmental Therapeutics Program at https://dtp.cancer.gov/organization/dscb/obtaining/available plates.htm. […] The stock solutions were prepared in dimethyl sulfoxide (DMSO, Sigma-Aldrich, St. Louis, MO, cat. D2650), except for the platinum compounds which were prepared in saline (Quality Biological, Gaithersburg, MD, cat. 114-055-101), at 800-fold the tested concentration and stored at -70 degrees C prior to their use. All drugs and investigational agents were tested over a range starting from a high concentration at or near the clinical Cmax and decreasing in half-log increments. If the clinical Cmax for an agent had not been determined, the highest concentration tested was 10 microM (Table 1).
Cell Culture. All cells were maintained in an incubator at 37 degrees C and 5% CO2 with 95% humidity. The PDC lines were cultured according to standard operating procedures established by the NCI PDMR (https://pdmr.cancer.gov). Briefly, all PDCs were thawed and cultured in Matrigel-coated flasks prepared with a working solution of 1X Ham's F-12 nutrient mix, without supplementation (Invitrogen, Waltham, MA, cat. 11765054), 100 U/mL penicillin-streptomycin (Invitrogen, cat. 15140122), and 2.5% Matrigel (Corning Inc., Corning, NY, cat. 354248) for the first three passages. All PDCs were cultured in complete DMEM/F-12 media containing advanced DMEM/F-12 (Invitrogen, cat. 12634028), 4.9% defined fetal bovine serum, heat inactivated (HyClone Laboratories Inc., Logan, UT, cat. SH30070.03HI), 389 ng/mL hydrocortisone (Sigma-Aldrich, cat. H4001), 9.7 ng/mL human EGF recombinant protein (Invitrogen, cat. PHG0313), 23.4 microg/mL adenine (Sigma-Aldrich, cat. A2786), 97.3 U/mL penicillin-streptomycin (Invitrogen, cat. 15140122), 1.9 mM L-glutamine (Invitrogen, cat. 25030081), and 9.7 microM Y-27632 dihydrochloride (Tocris Bioscience, Bristol, United Kingdom, cat. 1254). The PDCs were cultured in complete DMEM/F12 media without 10 microM Y-27632 dihydrochloride for at least two passages prior to the screen. The established cell lines NCI-H1341 and […] were cultured in DMEM/F-12, HEPES (Invitrogen, cat. 11330032), 5% defined fetal bovine serum (HyClone Laboratories Inc., cat. SH30070.03), ITS premix universal culture supplement [insulin (5 microg/mL), transferrin (5 microg/mL), and selenious acid (5 ng/mL)] […]
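Also: luminescence taken as a proxy for viable cell amount.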
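For viability, T/C in this document: percent of DMSO vehicle control where 100% means growth equal to vehicle.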

IC50 (second compound 0.1 µM): > 100 nM | IC50 (second compound 0.316 µM): > 100 nM | IC50 (second compound 1 µM): > 100 nM | IC50 (second compound 3.16 µM): > 100 nM | IC50 (second compound 10 µM): > 100 nM
Compound: CC[C@@]1(O)C(=O)OCc2c1cc1n(c2=O)Cc2cc3c(CN(C)C)c(O)ccc3nc2-1 + CC(CO)NC(=O)c1cc(-c2ccc(Cl)cc2)nn(-c2cnn(C)c2)c1=O
viability, T/C (second compound 0.1 µM, first compound 0.000316 µM): 89% | viability, T/C (second compound 0.1 µM, first compound 0.001 µM): 101% | viability, T/C (second compound 0.1 µM, first compound 0.00316 µM): 86.7% | viability, T/C (second compound 0.1 µM, first compound 0.01 µM): 90.6% | viability, T/C (second compound 0.1 µM, first compound 0.0316 µM): 83.2% | viability, T/C (second compound 0.1 µM, first compound 0.1 µM): 66.1% | viability, T/C (second compound 0.316 µM, first compound 0.000316 µM): 96% | viability, T/C (second compound 0.316 µM, first compound 0.001 µM): 99.5% | viability, T/C (second compound 0.316 µM, first compound 0.00316 µM): 92.3% | viability, T/C (second compound 0.316 µM, first compound 0.01 µM): 80.9% | viability, T/C (second compound 0.316 µM, first compound 0.0316 µM): 73.2% | viability, T/C (second compound 0.316 µM, first compound 0.1 µM): 57.2% | viability, T/C (second compound 1 µM, first compound 0.000316 µM): 80.8% | viability, T/C (second compound 1 µM, first compound 0.001 µM): 93.2% | viability, T/C (second compound 1 µM, first compound 0.00316 µM): 84.5% | viability, T/C (second compound 1 µM, first compound 0.01 µM): 77.4% | viability, T/C (second compound 1 µM, first compound 0.0316 µM): 78.6% | viability, T/C (second compound 1 µM, first compound 0.1 µM): 61.2% | viability, T/C (second compound 3.16 µM, first compound 0.000316 µM): 76% | viability, T/C (second compound 3.16 µM, first compound 0.001 µM): 86.3% | viability, T/C (second compound 3.16 µM, first compound 0.00316 µM): 90.8% | viability, T/C (second compound 3.16 µM, first compound 0.01 µM): 79.2% | viability, T/C (second compound 3.16 µM, first compound 0.0316 µM): 58.6% | viability, T/C (second compound 3.16 µM, first compound 0.1 µM): 52.9% | viability, T/C (second compound 10 µM, first compound 0.000316 µM): 79.2% | viability, T/C (second compound 10 µM, first compound 0.001 µM): 79.7% | viability, T/C (second compound 10 µM, first compound 0.00316 µM): 86.6% | viability, T/C (second compound 10 µM, first compound 0.01 µM): 66.5% | viability, T/C (second compound 10 µM, first compound 0.0316 µM): 63.4% | viability, T/C (second compound 10 µM, first compound 0.1 µM): 51.9%

IC50 (second compound 0.1 µM): 60 nM | IC50 (second compound 0.316 µM): 45.6 nM | IC50 (second compound 1 µM): 57.3 nM | IC50 (second compound 3.16 µM): 26.9 nM | IC50 (second compound 10 µM): 39.7 nM
Compound: O=C(C=Cn1cnc(-c2cc(C(F)(F)F)cc(C(F)(F)F)c2)n1)NNc1cnccn1 + CC(CO)NC(=O)c1cc(-c2ccc(Cl)cc2)nn(-c2cnn(C)c2)c1=O
viability, T/C (second compound 0.1 µM, first compound 0.00949 µM): 68.1% | viability, T/C (second compound 0.1 µM, first compound 0.03 µM): 64.5% | viability, T/C (second compound 0.1 µM, first compound 0.0949 µM): 40.4% | viability, T/C (second compound 0.1 µM, first compound 0.3 µM): 40.6% | viability, T/C (second compound 0.1 µM, first compound 0.949 µM): 37.8% | viability, T/C (second compound 0.1 µM, first compound 3 µM): 36.9% | viability, T/C (second compound 0.316 µM, first compound 0.00949 µM): 67.3% | viability, T/C (second compound 0.316 µM, first compound 0.03 µM): 54.5% | viability, T/C (second compound 0.316 µM, first compound 0.0949 µM): 42.1% | viability, T/C (second compound 0.316 µM, first compound 0.3 µM): 36.2% | viability, T/C (second compound 0.316 µM, first compound 0.949 µM): 35.6% | viability, T/C (second compound 0.316 µM, first compound 3 µM): 32.4% | viability, T/C (second compound 1 µM, first compound 0.00949 µM): 64.8% | viability, T/C (second compound 1 µM, first compound 0.03 µM): 54.1% | viability, T/C (second compound 1 µM, first compound 0.0949 µM): 48% | viability, T/C (second compound 1 µM, first compound 0.3 µM): 36.7% | viability, T/C (second compound 1 µM, first compound 0.949 µM): 34.1% | viability, T/C (second compound 1 µM, first compound 3 µM): 34.1% | viability, T/C (second compound 3.16 µM, first compound 0.00949 µM): 59.5% | viability, T/C (second compound 3.16 µM, first compound 0.03 µM): 50.1% | viability, T/C (second compound 3.16 µM, first compound 0.0949 µM): 36.1% | viability, T/C (second compound 3.16 µM, first compound 0.3 µM): 38.2% | viability, T/C (second compound 3.16 µM, first compound 0.949 µM): 28.7% | viability, T/C (second compound 3.16 µM, first compound 3 µM): 31.4% | viability, T/C (second compound 10 µM, first compound 0.00949 µM): 61% | viability, T/C (second compound 10 µM, first compound 0.03 µM): 54.7% | viability, T/C (second compound 10 µM, first compound 0.0949 µM): 35.7% | viability, T/C (second compound 10 µM, first compound 0.3 µM): 33.3% | viability, T/C (second compound 10 µM, first compound 0.949 µM): 28.6% | viability, T/C (second compound 10 µM, first compound 3 µM): 28.9%
